From US8048880B2, “Treatment of cardiovascular disease and dyslipidemia using secretory phospholipase A2 (SPLA2) inhibitors and SPLA2 inhibitor combination therapies” (Anthera Pharmaceuticals, Inc., priority 2007, dated 2011)

Experiments:
[1] = system: ApoE−/− mice; assay: En face lesion size in ApoE−/− mice on high fat diet, A-002 and/or statin (Example 3); format: in vivo; details: alone or plus 0.02 g/kg pravastatin, 12 weeks
Procedure: Body weight, plasma total cholesterol, and plasma HDL levels were measured for six groups of twelve ApoE^−/− mice. The mice were then placed on a high fat diet for twelve weeks to allow for formation of significant fatty atherosclerotic plaques. The high fat diet was a modified version of the Western diet (TD.88137, Harlan Teklad, Madison, Wis.) consisting of casein (195 g/kg), DL-methionine (3 g/kg), sucrose (341.44 g/kg), corn starch (150 g/kg), anhydrous milkfat (210 g/kg), cholesterol (1.5 g/kg), cellulose (50 g/kg), mineral mix AlN-76 (Teklad; 35 g/kg), calcium carbonate (4 g/kg), vitamin mix (Teklad #40060; 10 g/kg), ethyoxyquin (antioxidant, 0.04 g/kg), and either 0.0156 g/kg (“low dose”) A-002 (Group A), 1.56 g/kg (“high dose”) A-002 (Group B), 0.02 g/kg pravastatin (Group C), low dose A-002 plus 0.02 g/kg pravastatin (Group D), high dose A-002 plus 0.02 g/kg pravastatin (Group E), or vehicle only (Group F). Mice were administered diets A-F in a blinded manner, and food was provided ad libitum. The diet was initially prepared based on the assumption that each mouse weighed 22.5 g and ate 4.5 g/day. Based on body weight and food consumption, the diet was modified over the 12 week course of treatment to adjust for a body weight of 26 g and a food intake of 2.5 g/day. The dosages of A-002 were selected to cover a range of 100-fold based on pharmacokinetics in ApoE^−/− mice as well as toxicology and previously observed efficacy in this model.
After twelve weeks, mice were sacrificed and plasma, heart tissue, and aortic tissue were collected. En face lesion size was determined via digital imaging analysis. Plaque content (as measured as en face lesion) was reduced in mice administered A-002 alone, statin alone, or A-002 in combination with statin. The reduction in plaque content in mice administered A-002 plus statin was substantially greater than the reduction in mice administered either compound alone (Table 2, compare Group D vs. Groups A and C; Group E vs. Groups B and C). Further, the reduction in plaque content in mice administered A-002 plus statin was substantially greater than the sum of the reduction in plaque content in mice administered A-002 alone and mice administered statin alone.

[2] = system: sPLA2; assay: Serum sPLA2 concentration in humans, A-002 twice a day (Example 4); format: in vivo, human; details: ITT population, week 8
Procedure: 204 human subjects from the United States with CVD, specifically stable coronary artery disease, were randomized to receive placebo or A-002 via oral administration twice a day over an eight week administration period at dosages of 50 mg, 100 mg, 250 mg, or 500 mg. Levels of various lipids and inflammatory markers were measured at the outset of the trial and at the end of weeks four and/or eight. For data sets with a normal distribution, mean levels of lipids or inflammatory markers were analyzed. For data sets with non-normal distribution, median levels were analyzed. […] In addition, administration of A-002 decreased median levels of CRP (Table 11).

[3] = high dose A-002 (1.56 g/kg diet)
[4] = low dose A-002 (0.0156 g/kg diet)

In the case of `CCc1c(C(=O)C(N)=O)c2c(OCC(=O)OC)cccc2n1Cc1ccccc1` [A-002, [[3-(2-Amino-1,2-dioxoethyl)-2-ethyl-1-(phenylmethyl)-1H-indol-4-yl]oxy]acetic acid methyl ester], the “Change in mean % en face lesion vs. control” value [1, 3] is reported as −4.158%, the “Mean % en face lesion” value [1, 3] is reported as 1.469% and the “Change in mean % en face lesion vs. control” value [1, 4] is reported as −2.241%. The “Mean % en face lesion” value [1, 4] was 3.386%, the “% change vs. baseline (median [sPLA2])” value [2] was −86.96% and the “Change in median [sPLA2] vs. baseline” value [2] was -2.00 ng/mL.
